Columns and labels:
human SGLT2 = molecular target: T1, human SGLT2 (Homo sapiens, UniProt P31639); test: Assay for inhibitory effects on human SGLT2 activity (uptake of methyl-α-D-glucopyranoside in CS2-5E cells); format: cell-based; settings: inhibition of 14C α-MG uptake, CHO-K1 derived CS2-5E cells stably expressing human SGLT2, 1 mM α-MG, 37° C., 1 hour
T1 construct: expressed in transfected cells
T1 sequence (P31639 1-672): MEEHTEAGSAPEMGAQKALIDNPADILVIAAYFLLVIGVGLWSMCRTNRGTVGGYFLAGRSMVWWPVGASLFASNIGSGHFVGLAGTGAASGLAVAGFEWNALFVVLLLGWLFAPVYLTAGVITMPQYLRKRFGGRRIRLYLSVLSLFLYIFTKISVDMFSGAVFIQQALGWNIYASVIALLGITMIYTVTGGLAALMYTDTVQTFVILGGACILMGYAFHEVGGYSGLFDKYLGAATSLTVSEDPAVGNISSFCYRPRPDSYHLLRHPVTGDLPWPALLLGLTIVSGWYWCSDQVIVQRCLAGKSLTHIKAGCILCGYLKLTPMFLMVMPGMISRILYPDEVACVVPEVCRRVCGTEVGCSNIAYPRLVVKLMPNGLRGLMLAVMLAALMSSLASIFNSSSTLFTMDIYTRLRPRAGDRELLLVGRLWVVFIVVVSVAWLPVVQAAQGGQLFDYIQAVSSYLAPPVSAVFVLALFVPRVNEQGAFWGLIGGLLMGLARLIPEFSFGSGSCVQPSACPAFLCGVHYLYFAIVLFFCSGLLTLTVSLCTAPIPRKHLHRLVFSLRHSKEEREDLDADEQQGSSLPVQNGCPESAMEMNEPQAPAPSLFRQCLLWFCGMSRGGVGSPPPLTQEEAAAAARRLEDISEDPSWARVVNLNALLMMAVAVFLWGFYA
Protocol: Assay for Inhibitory Effects on Human SGLT2 Activity
1) Cloning and Construction of the Vector Expressing Human SGLT2
The cDNA library was prepared for PCR amplification by reverse transcription from total RNA deprived from human kidney (Ori gene) using oligo-dT as a primer. Using this cDNA library as a template, the DNA fragment coding 2 to 2039 bp of human SGLT2 (ACCESSION: M95549, M95299), which was reported by R. G. Wells et al., was amplified by PCR method and inserted into the multi-cloning site of pcDNA3.1(−) (Invitrogen). The DNA sequence inserted was perfectly matched to the previously reported sequence.
2) Establishment of Cell Line Stably Expressing Human SGLT2
The expression vector of human SGLT2 was digested by Sca I into a linear DNA. The linear DNA was transfected into CHO-K1 cells by means of lipofection (Effectene Transfection Reagent: QIAGEN). Neomycin resistant cell lines were selected by culture in the medium containing G418 (1 mg/mL, LIFE TECHNOLOGIES), and then the activity against the uptake of methyl-α-D-glucopyranoside was measured by the method described below. […] CS2-5E cells were cultured in the presence of G418 at 200 μg/mL. […]
CS2-5E cells were seeded into a 96-well culture plate at a density of 3×10^4 cells/well and cultured for 2 days, and were used in the uptake assay. […] Radioactivity was measured by means of micro-scintillation counter TopCount (Packard). […]

human SGLT1 = molecular target: T2, human SGLT1 (Homo sapiens, UniProt P13866); test: Assay for inhibitory effects on human SGLT1 activity (uptake of methyl-α-D-glucopyranoside in CS1-5-11D cells); format: cell-based; settings: inhibition of 14C α-MG uptake, CHO-K1 derived CS1-5-11D cells stably expressing human SGLT1, 1 mM α-MG, 37° C., 1 hour
T2 construct: expressed in transfected cells
T2 sequence (P13866 1-664): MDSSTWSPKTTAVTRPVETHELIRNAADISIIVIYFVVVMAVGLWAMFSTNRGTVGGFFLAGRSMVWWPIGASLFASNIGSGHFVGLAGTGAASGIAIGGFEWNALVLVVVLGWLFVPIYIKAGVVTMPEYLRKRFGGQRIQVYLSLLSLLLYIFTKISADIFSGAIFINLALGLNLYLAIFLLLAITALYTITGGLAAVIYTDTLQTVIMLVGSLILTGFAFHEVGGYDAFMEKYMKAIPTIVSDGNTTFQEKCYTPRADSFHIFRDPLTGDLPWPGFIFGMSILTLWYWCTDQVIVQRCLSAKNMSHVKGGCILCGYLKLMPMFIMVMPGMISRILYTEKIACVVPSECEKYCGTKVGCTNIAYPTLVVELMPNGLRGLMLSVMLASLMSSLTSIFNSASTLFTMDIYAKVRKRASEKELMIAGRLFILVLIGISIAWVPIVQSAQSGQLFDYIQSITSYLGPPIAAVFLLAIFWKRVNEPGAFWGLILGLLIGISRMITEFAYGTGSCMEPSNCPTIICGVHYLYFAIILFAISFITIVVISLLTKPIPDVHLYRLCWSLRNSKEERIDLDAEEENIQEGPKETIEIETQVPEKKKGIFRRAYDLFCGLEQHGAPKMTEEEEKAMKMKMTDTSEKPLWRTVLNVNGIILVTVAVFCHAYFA
Protocol: Assay for Inhibitory Effects on Human SGLT1 Activity
1) Cloning and Construction of the Vector Expressing Human SGLT1
The cDNA library was prepared for PCR amplification by reverse transcription from total RNA deprived from human small intestine (Ori gene) using oligo-dT as a primer. Using this cDNA library as a template, the DNA fragment coding 1 to 2005 bp of human SGLT1 (ACCESSION: M24847), which was reported by Hediger et al., was amplified by PCR method and inserted into the multi-cloning site of pcDNA3.1(−) (Invitrogen). The DNA sequence inserted was perfectly matched to the previously reported sequence.
2) Establishment of Cell Line Stably Expressing Human SGLT1
The expression vector of human SGLT1 was digested by Sca I into a linear DNA. The linear DNA was transfected into CHO-K1 cells by means of lipofection (Effectene Transfection Reagent: QIAGEN). Neomycin resistant cell lines were selected by culture in the medium containing G418 (1 mg/mL, LIFE TECHNOLOGIES), and then the activity against the uptake of methyl-α-D-glucopyranoside was measured by the method described below. […] CS1-5-11D cells were cultured in the presence of G418 at 200 μg/mL. […]
CS1-5-11D cells were seeded into a 96-well culture plate at a density of 3×10^4 cells/well and cultured for 2 days, and were used in the uptake assay. […] Radioactivity was measured by means of micro-scintillation counter TopCount (Packard). […]

diabetic rats = test: Assay for inhibitory effects on blood glucose level increase in rats (liquid meal tolerance test); format: in vivo, Wistar rats; settings: liquid meal load, mean±S.E.; for Plasma glucose concentration 0.5 h: 0.5 hour after administration; for Plasma glucose concentration 1 h: 1 hour after administration; for Plasma glucose concentration 0 h: pretreatment (0 h)
Protocol: Assay for Inhibitory Effects on Blood Glucose Level Increase in Rats
1) Preparation of Diabetic Rat Model
Male Wistar rats (Japan Charles River), aged 8 weeks old, were injected nicotinamide (230 mg/kg) intraperitoneally. Fifteen minutes after injection, they were injected streptozotocin (85 mg/kg) intravenously from tail vain under anesthesia with ether. After a week, rats were fasted overnight and then glucose tolerance test (2 g/kg) was done.
2) Liquid Meal Tolerance Test
After overnight fasted, the diabetic rats were orally administered a test compound (0.5, 2 mg/kg), which was dissolved in distilled water, in the drug-treating group, or distilled water alone in a control group. Immediately after the compound administration, 4.5 kcal/body of liquid meal (No. 038, Control diet, assorted with dextrin and maltose; Oriental Yeast Co., Ltd.) was loaded orally. The blood was collected from tail artery immediately before and after administration with the time course, and treated with heparin immediately. The blood was centrifuged, and the plasma was collected to quantify the plasma glucose concentration by glucose oxidase method. The values in the Table are presented as the mean±S.E.

OC[C@H]1O[C@@H](Oc2n[nH]c3cccc(CCc4ccccc4)c23)[C@H](O)[C@@H](O)[C@@H]1O [Example 4, 3-(β-D-Glucopyranosyloxy)-4-(2-phenylethyl)-1H-indazole]
IC50 (human SGLT2): 90 nM

Cc1cc(CCc2cccc3[nH]nc(O[C@@H]4O[C@H](CO)[C@@H](O)[C@H](O)[C@H]4O)c23)ccc1O [Example 5, 3-(β-D-Glucopyranosyloxy)-4-[2-(4-hydroxy-3-methylphenyl)-ethyl]-1H-indazole]
IC50 (human SGLT1): 12 nM

NC(=O)Cn1nc(O[C@@H]2O[C@H](CO)[C@@H](O)[C@H](O)[C@H]2O)c2c(CCc3ccc(O)cc3)ccnc21 [Example 12, 1-Carbamoylmethyl-3-(β-D-glucopyranosyloxy)-4-[2-(4-hydroxyphenyl)ethyl]-1H-pyrazolo[3,4-b]pyridine]
IC50 (human SGLT1): 100 nM

OCCn1nc(O[C@@H]2O[C@H](CO)[C@@H](O)[C@H](O)[C@H]2O)c2c(CCc3ccccc3)ccnc21 [Example 17, 3-(β-D-Glucopyranosyloxy)-1-(2-hydroxyethyl)-4-(2-phenylethyl)-1H-pyrazolo[3,4-b]pyridine]
IC50 (human SGLT2): 68 nM

OCCn1nc(O[C@@H]2O[C@H](CO)[C@@H](O)[C@H](O)[C@H]2O)c2c(CCc3ccc(O)cc3)cccc21 [Example 59, 3-(β-D-Glucopyranosyloxy)-1-(2-hydroxyethyl)-4-[2-(4-hydroxyphenyl)ethyl]-1H-indazole]
Plasma glucose concentration 0.5 h (diabetic rats; 0.5 mg/kg orally): 173 ± 7 mg/dL
Plasma glucose concentration 1 h (diabetic rats; 0.5 mg/kg orally): 186 ± 6 mg/dL
Plasma glucose concentration 0 h (diabetic rats; 0.5 mg/kg orally): 109 ± 2 mg/dL
Plasma glucose concentration 0.5 h (diabetic rats; 2 mg/kg orally): 141 ± 3 mg/dL
Plasma glucose concentration 1 h (diabetic rats; 2 mg/kg orally): 153 ± 4 mg/dL
Plasma glucose concentration 0 h (diabetic rats; 2 mg/kg orally): 115 ± 3 mg/dL
